The results in this text go back to PubChem BioAssay (NCI).

Some test systems named below: NCI-H460 lung; A549 NSCLC; HCT-116 colon; NCI/ADR-RES ovarian; OVCAR-4 ovarian; HCT-15 colon; SNB-75 CNS; MDA-MB-435; OVCAR-3 ovarian; HL-60(TB) leukemia.
What all share (test): growth of human tumour cells (NCI), 48 h

Several values for one entry are separate records, joined by “and”; a condition that tells them apart may be missing. Equal entries are not always repeated.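 48-hour exposure; five concentrations; linearly interpolated endpoints. GI50 marks 50% less growth. TGI: total growth inhibition.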

As to `Cc1ccc(NC(=O)c2ccnc(C(F)(F)F)c2)cc1-c1cc(OCCO)nc(N2CCOCC2)c1`, the GI50 was 2.81 µM with NCI-H460 lung; 3.21 µM with A549 NSCLC; 0.7 µM in the assay on HCT-116 colon; 2.63 µM in the assay with NCI/ADR-RES ovarian; 3.95 µM in the assay with OVCAR-4 ovarian; 2.24 µM in the assay on HCT-15 colon. Besides, the GI50 is 1.46 µM with SNB-75 CNS, 0.391 µM in the assay with MDA-MB-435, 2.62 µM with OVCAR-3 ovarian and 1.05 µM with HL-60(TB) leukemia. For the same molecule, the TGI in the assay with NCI-H460 lung was 13.5 µM; with A549 NSCLC it was 28.9 µM; in the assay with HCT-116 colon, over 100 µM; in the assay on NCI/ADR-RES ovarian, 11.5 µM; with OVCAR-4 ovarian, 21.5 µM; in the assay with HCT-15 colon, 19.4 µM. For the same molecule, the TGI in the assay with SNB-75 CNS came out at 7.29 µM; with MDA-MB-435 it was 1.81 µM; with OVCAR-3 ovarian, 12.5 µM; in the assay with HL-60(TB) leukemia, 6.51 µM.

Take `CCCCCC(=O)N1c2ccccc2NC2=C(C(=O)CC(c3ccc(OC)c(OC)c3)C2)C1c1ccc(C(F)(F)F)cc1` (stereo not given): the GI50 in the assay on NCI-H460 lung was over 100 µM; with A549 NSCLC it was over 100 µM; in the assay on HCT-116 colon it was 72.1 µM; in the assay with NCI/ADR-RES ovarian it was over 100 µM; in the assay on OVCAR-4 ovarian, 15.8 µM; with HCT-15 colon it was over 100 µM. The GI50 in the assay on SNB-75 CNS was 15.3 µM; with MDA-MB-435, 50.7 µM; in the assay with OVCAR-3 ovarian it was over 100 µM; in the assay with HL-60(TB) leukemia it was over 100 µM. In addition, the TGI in the assay on NCI-H460 lung, in the assay on A549 NSCLC, in the assay on HCT-116 colon, with NCI/ADR-RES ovarian, in the assay on OVCAR-4 ovarian and with HCT-15 colon was over 100 µM each time. The TGI with SNB-75 CNS, in the assay on MDA-MB-435, in the assay with OVCAR-3 ovarian and with HL-60(TB) leukemia was over 100 µM in each case.

`O=[N+]([O-])c1cccc(-c2nc3sccn3c2-c2ccnc(NCCCNS(=O)(=O)c3ccc(F)cc3)n2)c1`: the GI50 was 2.94 µM in the assay on NCI-H460 lung; 2.73 µM in the assay with A549 NSCLC; 2.85 µM in the assay on HCT-116 colon; 1.85 µM in the assay on NCI/ADR-RES ovarian; 1.65 µM with OVCAR-4 ovarian; 2.08 µM with HCT-15 colon. For the same molecule, the GI50 in the assay with SNB-75 CNS was 1.58 µM; with MDA-MB-435 it was 2.55 µM; in the assay on OVCAR-3 ovarian, 2.31 µM; in the assay on HL-60(TB) leukemia, 2.55 µM. Further, the TGI is over 100 µM in the assay with NCI-H460 lung; over 100 µM in the assay on A549 NSCLC; over 100 µM in the assay with HCT-116 colon; 7.31 µM with NCI/ADR-RES ovarian; 6.55 µM in the assay with OVCAR-4 ovarian; 9.79 µM with HCT-15 colon. For the same molecule, the TGI with SNB-75 CNS stood at 6.07 µM; in the assay with MDA-MB-435 it was 7.93 µM; in the assay with OVCAR-3 ovarian it was 8.49 µM; with HL-60(TB) leukemia, 6.69 µM.

Take `O=C(O)CC(Cc1ccc2c(c1)OCO2)C(=O)O` (stereo not given): the TGI in the assay on NCI-H460 lung, in the assay with A549 NSCLC, in the assay with HCT-116 colon, in the assay with NCI/ADR-RES ovarian, with OVCAR-4 ovarian and with HCT-15 colon was over 100 µM in each case. Moreover, the TGI in the assay with SNB-75 CNS, in the assay on MDA-MB-435, in the assay with OVCAR-3 ovarian and in the assay with HL-60(TB) leukemia was over 100 µM in each case.

`COC(=O)c1c2c(c(C)[n+]([O-])c1C)C(=O)C=C(NCc1ccc(Cl)cc1)C2=O`: the GI50 in the assay on NCI-H460 lung is 0.397 µM; with A549 NSCLC it was 0.543 µM; in the assay with HCT-116 colon, 0.249 µM; with NCI/ADR-RES ovarian it was 0.31 µM; with OVCAR-4 ovarian, 0.229 µM; with HCT-15 colon, 0.183 µM. The GI50 in the assay on SNB-75 CNS was 1.65 µM; with MDA-MB-435, 0.0895 µM; in the assay on OVCAR-3 ovarian it was 0.208 µM; with HL-60(TB) leukemia it was 0.324 µM. Moreover, the TGI was 1.71 µM in the assay with NCI-H460 lung; 3.05 µM in the assay with A549 NSCLC; 1.05 µM with HCT-116 colon; 3.22 µM with NCI/ADR-RES ovarian; 1.03 µM in the assay on OVCAR-4 ovarian; 1.74 µM in the assay on HCT-15 colon. Also, the TGI was 3.03 µM in the assay on SNB-75 CNS, 0.229 µM with MDA-MB-435, 0.625 µM in the assay on OVCAR-3 ovarian and 1.55 µM in the assay with HL-60(TB) leukemia.

As for `Nc1nc(-n2cccn2)nc(-n2cccn2)c1Br`, the GI50 in the assay with NCI-H460 lung, in the assay with A549 NSCLC, in the assay on HCT-116 colon, in the assay on NCI/ADR-RES ovarian, in the assay on OVCAR-4 ovarian and in the assay with HCT-15 colon was over 100 µM in each case. For the same molecule, the GI50 with SNB-75 CNS was 24.6 µM; with MDA-MB-435, over 100 µM; with OVCAR-3 ovarian, over 100 µM; in the assay with HL-60(TB) leukemia, over 100 µM. For the same molecule, the TGI in the assay on NCI-H460 lung, with A549 NSCLC, in the assay on HCT-116 colon, in the assay with NCI/ADR-RES ovarian, in the assay with OVCAR-4 ovarian and in the assay with HCT-15 colon was over 100 µM throughout. For the same molecule, the TGI with SNB-75 CNS, in the assay on MDA-MB-435, with OVCAR-3 ovarian and with HL-60(TB) leukemia was over 100 µM each time.

For `CC[C@@]1(O)C(=O)NCc2c1cc1n(c2=O)Cc2cc3cc4c(cc3nc2-1)OCO4`, the GI50 is 0.219 µM in the assay with NCI-H460 lung; 0.618 µM in the assay on A549 NSCLC; 0.883 µM in the assay on HCT-116 colon; 0.236 µM with NCI/ADR-RES ovarian; 22.5 µM in the assay on OVCAR-4 ovarian; 8.58 µM in the assay on HCT-15 colon. Further, the GI50 is 0.5 µM with SNB-75 CNS, 2.11 µM in the assay on MDA-MB-435, 14.2 µM in the assay on OVCAR-3 ovarian and 0.0462 µM in the assay on HL-60(TB) leukemia. Moreover, the TGI is 16.9 µM with NCI-H460 lung; over 73.4 µM with A549 NSCLC; 46 µM with HCT-116 colon; 1.56 µM in the assay on NCI/ADR-RES ovarian; 97.8 µM in the assay on OVCAR-4 ovarian; over 100 µM in the assay on HCT-15 colon. The TGI was 3.57 µM in the assay on SNB-75 CNS, over 100 µM with MDA-MB-435, over 95.5 µM in the assay on OVCAR-3 ovarian and 0.502 µM in the assay with HL-60(TB) leukemia.

In the case of `COc1cc2c(cc1OCCCCCOc1cc(-c3ccc(F)cc3)nc(C)n1)N=C[C@@H]1CCCN1C2=O`, the GI50 with NCI-H460 lung is over 36 µM; in the assay with A549 NSCLC it was over 41.2 µM; with HCT-116 colon, over 52.9 µM; in the assay on NCI/ADR-RES ovarian, over 100 µM; in the assay on OVCAR-4 ovarian it was over 40.6 µM; in the assay on HCT-15 colon, over 41.9 µM. For the same molecule, the GI50 in the assay on SNB-75 CNS was over 100 µM; in the assay with MDA-MB-435 it was over 45.3 µM; with OVCAR-3 ovarian, over 38.2 µM; in the assay on HL-60(TB) leukemia, over 100 µM. Besides, the TGI with NCI-H460 lung was over 58.5 µM; in the assay with A549 NSCLC, over 66.3 µM; with HCT-116 colon, 98.4 µM; in the assay on NCI/ADR-RES ovarian, over 100 µM; with OVCAR-4 ovarian it was over 79.7 µM; with HCT-15 colon, over 77.9 µM. For the same molecule, the TGI with SNB-75 CNS is over 100 µM; in the assay on MDA-MB-435 it was over 67.5 µM; in the assay on OVCAR-3 ovarian, over 58.3 µM; in the assay on HL-60(TB) leukemia, over 100 µM.

In the case of `COc1cc(N2CCC(N(C)C)CC2)ccc1Nc1ncc(Cl)c(Nc2ccccc2P(C)(C)=O)n1`, the GI50 was 1.92 µM and 0.385 µM in the assay with NCI-H460 lung; 0.617 µM and 0.218 µM in the assay on A549 NSCLC; 1.4 µM and 0.183 µM in the assay on HCT-116 colon; 15.6 µM and > 6.15 µM in the assay with NCI/ADR-RES ovarian; 0.448 µM and 0.615 µM in the assay with OVCAR-4 ovarian; 2.8 µM and 1.48 µM in the assay on HCT-15 colon. For the same molecule, the GI50 is 1.07 µM and 0.228 µM in the assay with SNB-75 CNS; 1.94 µM and 0.972 µM in the assay with MDA-MB-435; 1.73 µM and 0.728 µM in the assay with OVCAR-3 ovarian; 1.25 µM and 0.168 µM in the assay with HL-60(TB) leukemia. Moreover, the TGI in the assay with NCI-H460 lung is 12.9 µM and > 3.67 µM; in the assay with A549 NSCLC it was 8.54 µM and > 7.6 µM; with HCT-116 colon, over 39.2 µM; with NCI/ADR-RES ovarian it was 98.1 µM and > 10 µM; in the assay on OVCAR-4 ovarian, 10.8 µM and > 10 µM; with HCT-15 colon, 16.9 µM and > 9.67 µM. The TGI with SNB-75 CNS was 2.69 µM and 0.82 µM; with MDA-MB-435, over 87.6 µM; with OVCAR-3 ovarian it was 11.3 µM and 7.01 µM; in the assay on HL-60(TB) leukemia it was 11.6 µM and > 5.33 µM.
